The source of these data is patent US9486422B2, “Small molecule inhibitors of Mcl-1 and the uses of thereof” (THE REGENTS OF THE UNIVERSITY OF MICHIGAN, priority 2011, dated 2016).

Each structure is given as a SMILES string. Where two headings read alike, the source gives them in different places. Bounds are passed on as bounds.

The target in assay [1] is Mcl-1 (Homo sapiens, UniProt Q07820). As to the kind of experiment: FP-based binding assay, Mcl-1. The following applies: for Ki: read-out: Mcl-1 Ki ± SD; for binding to Mcl-1, result in words: FP assay.
Chain of Mcl-1 (Q07820 171-327): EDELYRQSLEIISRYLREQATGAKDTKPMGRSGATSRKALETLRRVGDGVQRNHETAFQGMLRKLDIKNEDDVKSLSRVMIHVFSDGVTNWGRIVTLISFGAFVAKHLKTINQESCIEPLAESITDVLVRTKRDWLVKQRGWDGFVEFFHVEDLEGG
Assay [2] concerns the target T1, A1/Bfl-1 (Homo sapiens, UniProt Q16548).
T1 sequence (Q16548 1-151): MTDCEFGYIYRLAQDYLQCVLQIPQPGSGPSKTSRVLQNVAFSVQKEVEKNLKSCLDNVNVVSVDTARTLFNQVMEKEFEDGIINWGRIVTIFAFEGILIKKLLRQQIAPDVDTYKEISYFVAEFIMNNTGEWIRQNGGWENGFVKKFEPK
The experiment in a line: FP-based binding assay, A1/Bfl-1. The note with it: for Ki: read-out: A1/Bfl-1 Ki ± SD.

For assay [3], the target named is T2, Bcl-w (Homo sapiens, UniProt Q92843).
T2 sequence (Q92843 1-155): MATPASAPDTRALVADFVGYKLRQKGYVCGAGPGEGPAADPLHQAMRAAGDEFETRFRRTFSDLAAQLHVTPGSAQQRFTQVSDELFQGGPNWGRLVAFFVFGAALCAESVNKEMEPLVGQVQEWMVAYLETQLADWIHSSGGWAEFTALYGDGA
As to the kind of experiment: FP-based binding assay, Bcl-w. The following applies: for Ki: competitive FP, FAM-BID 2 nM, protein 40 nM, read-out: Bcl-w Ki ± SD.

Assay [4] addresses Bcl-xL (Homo sapiens, UniProt Q07817, DEL45-85). The experiment in a line: FP-based binding assay, Bcl-xL. The note with it: read-out: Bcl-xL Ki ± SD.
Setting [5] is: competitive FP, Flu-BID 2 nM, Mcl-1 90 nM, read-out: Mcl-1 IC50 ± SD.
Setting [6] is: competitive FP, Ki calculated from IC50.

Chain of Bcl-xL (Q07817 other isoform, or with tags, fused parts or gaps DEL45-85): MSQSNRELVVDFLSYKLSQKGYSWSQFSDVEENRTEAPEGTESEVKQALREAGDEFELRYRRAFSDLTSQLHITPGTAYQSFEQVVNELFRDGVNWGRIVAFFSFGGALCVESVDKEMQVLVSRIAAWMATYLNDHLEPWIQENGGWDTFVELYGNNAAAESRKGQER

In general, IC50 refers to the concentration needed to halve the response being measured. Regarding `O=C(O)CSc1cc(NS(=O)(=O)c2ccccc2)c2ccccc2c1O` [Compound 2, 2-((1-Hydroxy-4-(phenylsulfonamido)naphthalen-2-yl)thio)acetic acid], the IC50 in assay [1] (setting [5]) worked out at 13 ± 1.62 µM. For the same compound, the Ki in assay [1] was 3.56 ± 0.45 µM.

`Cc1ccc(S(=O)(=O)Nc2cc(SCC(=O)O)c(O)c3ccccc23)cc1` [Compound 3]: the IC50 in assay [1] (setting [5]) worked out at 11.5 ± 0.78 µM. Also, the Ki in assay [1] (setting [6]) was 3.13 ± 0.22 µM.

Take `CCc1ccc(S(=O)(=O)Nc2cc(SCC(=O)O)c(O)c3ccccc23)cc1` [Compound 4]: the IC50 in assay [1] (setting [5]) stood at 5.73 ± 1.34 µM. In addition, the Ki in assay [1] (setting [6]) was 1.55 ± 0.37 µM.

For `COc1c(SCC(N)=O)cc(NS(=O)(=O)c2ccc(Br)cc2)c2ccccc12` [Compound 4v, 2-((4-(4-Bromophenylsulfonamido)-1-methoxynaphthalen-2-yl)thio)acetamide], in assay [1], the “binding to Mcl-1, result in words” value is “loss of binding”. Besides, the Ki in assay [1] (setting [6]) was above 25 µM.

On to `CC(C)c1ccc(S(=O)(=O)Nc2cc(SCC(=O)O)c(O)c3ccccc23)cc1` [Compound 5], for which, in assay [1] (setting [6]), the Ki is 1.06 ± 0.17 µM. The IC50 in assay [1] (read-out: Mcl-1 IC50 ± SD) came to 3.92 ± 0.63 µM.

Take `CC(C)(C)c1ccc(S(=O)(=O)Nc2cc(SCC(=O)O)c(O)c3ccccc23)cc1` [Compound 6]: the IC50 in assay [1] (setting [5]) amounted to 3.03 ± 0.17 µM. Also, in assay [1] (setting [6]), the Ki is 0.81 ± 0.04 µM.

On to `O=C(O)CSc1cc(NS(=O)(=O)c2ccc(F)cc2)c2ccccc2c1O` [Compound 7], for which, in assay [1] (setting [5]), the IC50 was determined as 15.5 ± 3.38 µM. The Ki in assay [1] (setting [6]) was 4.23 ± 0.93 µM.

On to `O=C(O)CSc1cc(NS(=O)(=O)c2ccc(Cl)cc2)c2ccccc2c1O` [Compound 8, 2-((4-(4-Chlorophenylsulfonamido)-1-hydroxynaphthalen-2-yl)thio)acetic acid], for which the IC50 in assay [1] (setting [5]) is 3.08 ± 0.35 µM. Also, in assay [1], the Ki was found to be 0.82 ± 0.1 µM.

As to `O=C(O)CSc1cc(NS(=O)(=O)c2cccc(Br)c2)c2ccccc2c1O` [Compound 10, 2-((4-(3-Bromophenylsulfonamido)-1-hydroxynaphthalen-2-yl)thio)acetic acid], in assay [1] (setting [5]), the IC50 is 8.64 ± 0.69 µM. For the same compound, the Ki in assay [1] (setting [6]) is 2.35 ± 0.19 µM.

With `O=C(O)CSc1cc(NS(=O)(=O)c2ccccc2Br)c2ccccc2c1O` [Compound 11, 2-((4-(2-Bromophenylsulfonamido)-1-hydroxynaphthalen-2-yl)thio)acetic acid], in assay [1] (setting [5]), the IC50 was found to be 16.2 ± 3.12 µM. For the same compound, in assay [1], the Ki turned out to be 4.42 ± 0.86 µM.

Consider `O=C(O)CSc1cc(NS(=O)(=O)c2cc3ccccc3s2)c2ccccc2c1O` [Compound 12, 2-((4-(Benzo[b]thiophene-2-sulfonamido)-1-hydroxynaphthalen-2-yl)thio)acetic acid], for which the half-maximal inhibitory concentration (IC50) in assay [1] turned out to be 5.66 ± 1.15 µM. Moreover, in assay [1] (setting [6]), the Ki is 1.54 ± 0.32 µM.

For the compound `O=C(O)CSc1cc(NS(=O)(=O)c2ccc3ccccc3c2)c2ccccc2c1O` [Compound 13], the IC50 in assay [1] (setting [5]) came to 2.74 ± 0.18 µM. Moreover, the Ki in assay [1] (setting [6]) was 0.73 ± 0.05 µM.

Take `O=C(O)CSc1cc(NS(=O)(=O)c2ccc(-c3ccccc3)cc2)c2ccccc2c1O` [Compound 14, 2-((4-([1,1′-Biphenyl]-4-ylsulfonamido)-1-hydroxynaphthalen-2-yl)thio)acetic acid]: the “fold improved binding to Mcl-1 compared to 2” value in assay [1] came out at 9 fold. Moreover, the IC50 in assay [1] (setting [5]) stood at 1.4 ± 0.36 µM. Further, the Ki amounted to 0.37 ± 0.1 µM in assay [1], 2.34 ± 0.37 µM in assay [2], 1.92 ± 0.37 µM in assay [3] and 8.05 ± 0.5 µM in assay [4].

In the case of `O=C(O)CSc1cc(NS(=O)(=O)c2cccc(-c3ccccc3)c2)c2ccccc2c1O` [Compound 15, 2-((4-([1,1′-Biphenyl]-3-ylsulfonamido)-1-hydroxynaphthalen-2-yl)thio)acetic acid], in assay [1], the “fold improved binding to Mcl-1 compared to 2” value was determined as 9 fold. The half-inhibitory concentration (IC50) in assay [1] (setting [5]) came to 1.41 ± 0.17 µM. Moreover, the Ki was 0.38 ± 0.03 µM in assay [1], 3.18 ± 0.41 µM in assay [2], 2.19 ± 0.45 µM in assay [3] and 15.1 ± 1.11 µM in assay [4].

For the compound `O=C(O)CSc1cc(NS(=O)(=O)c2ccc(-c3ccc(Cl)cc3)cc2)c2ccccc2c1O` [Compound 17, 2-((4-(4′-Chloro-[1,1′-biphenyl]-4-ylsulfonamido)-1-hydroxynaphthalen-2-yl)thio)acetic acid], in assay [1] (setting [5]), the IC50 stood at 0.68 ± 0.14 µM. Also, the Ki in assay [1] (setting [6]) was 0.17 ± 0.04 µM.

`O=C(O)CSc1cc(NS(=O)(=O)c2ccc(Oc3ccccc3)cc2)c2ccccc2c1O` [Compound 18, 2-((1-Hydroxy-4-(4-phenoxyphenylsulfonamido)naphthalen-2-yl)thio)acetic acid]: the Ki in assay [2] (competitive FP, FAM-BID 1 nM, protein 4 nM) is 3.36 ± 0.56 µM; in assay [3] it was 1.58 ± 0.35 µM; in assay [4] (competitive FP, FAM-BID 2 nM, protein 50 nM) it was 10.6 ± 1.53 µM.

Consider `CCOc1ccc(S(=O)(=O)Nc2cc(SCC(=O)O)c(O)c3ccccc23)cc1` [Compound 19], for which the half-inhibitory concentration (IC50) in assay [1] (setting [5]) came to 50.1 ± 4.15 µM. Besides, in assay [1] (setting [6]), the Ki is 13.7 ± 1.14 µM.

As for `O=C(O)CSc1cc(NS(=O)(=O)c2ccc(C(=O)O)cc2)c2ccccc2c1O` [Compound 20], the half-maximal inhibitory concentration (IC50) in assay [1] (setting [5]) came to 17.4 µM. Also, the Ki in assay [1] (setting [6]) is 4.76 µM.

Turning to `CS(=O)(=O)Nc1cc(SCC(=O)O)c(O)c2ccccc12` [Compound 21, 2-((1-Hydroxy-4-(methylsulfonamido)naphthalen-2-yl)thio)acetic acid], the concentration for half-maximal inhibition (IC50) in assay [1] (setting [5]) was above 200 µM. In addition, the Ki in assay [1] (setting [6]) is above 50 µM.

For the compound `O=C(O)CSc1cc(NC(=O)c2ccc(Br)cc2)c2ccccc2c1O` [Compound 23, 2-((4-(4-Bromobenzamido)-1-hydroxynaphthalen-2-yl)thio)acetic acid], the concentration for half-maximal inhibition (IC50) in assay [1] (setting [5]) is above 100 µM. Besides, the Ki in assay [1] (setting [6]) is above 25 µM.

On to `O=C(O)CSc1cc(NC(=O)Cc2ccccc2)c2ccccc2c1O` [Compound 24, 2-((1-Hydroxy-4-(2-phenylacetamido)naphthalen-2-yl)thio)acetic acid], for which the IC50 in assay [1] (setting [5]) stood at 154 ± 40.2 µM. Moreover, the Ki in assay [1] (setting [6]) is 42.4 ± 11 µM.

As to `O=C(O)CSc1cc(NS(=O)(=O)Cc2ccc(Cl)cc2)c2ccccc2c1O` [Compound 25, 2-((4-((4-Chlorophenyl)methylsulfonamido)-1-hydroxynaphthalen-2-yl)thio)acetic acid], in assay [1] (setting [5]), the IC50 was 19.1 ± 1.31 µM. For the same compound, the Ki in assay [1] (setting [6]) is 5.23 ± 0.36 µM.

`O=S(=O)(Nc1ccc(O)c2ccccc12)c1ccccc1` [Compound 27, N-(4-Hydroxynaphthalen-1-yl)benzenesulfonamide]: the “binding to Mcl-1, result in words” value in assay [1] is “abolished binding”. Besides, the concentration for half-maximal inhibition (IC50) in assay [1] (setting [5]) is above 100 µM. Besides, the Ki in assay [1] (setting [6]) was above 25 µM.

In the case of `CCCCSc1cc(NS(=O)(=O)c2ccc(Br)cc2)c2ccccc2c1O` [Compound 30, 4-Bromo-N-(3-(butylthio)-4-hydroxynaphthalen-1-yl)benzenesulfonamide], the “binding to Mcl-1, result in words” value in assay [1] is reported as “abolished the binding to Mcl-1 protein”. The half-inhibitory concentration (IC50) in assay [1] (setting [5]) is above 100 µM. Moreover, in assay [1] (setting [6]), the Ki is above 25 µM.

For `O=S(=O)(Nc1cc(CCCCO)c(O)c2ccccc12)c1ccc(Br)cc1` [Compound 32, 4-Bromo-N-(4-hydroxy-3-(4-hydroxybutyl)naphthalen-1-yl)benzenesulfonamide], in assay [1], the “fold decreased binding to Mcl-1 compared to 9 (UMI-77)” value turned out to be 4 fold and the Ki worked out at 2.18 ± 0.91 µM. Besides, in assay [1] (setting [5]), the IC50 was determined as 8.01 ± 3.31 µM.

Regarding `NC(=O)CSc1cc(NS(=O)(=O)c2ccc(Br)cc2)c2ccccc2c1O` [Compound 33, 2-((4-(4-Bromophenylsulfonamido)-1-hydroxynaphthalen-2-yl)thio)acetamide], the IC50 in assay [1] (setting [5]) worked out at 6.27 ± 1.28 µM. Further, the Ki in assay [1] came out at 1.71 ± 0.35 µM.

Take `O=C(O)CCSc1cc(NS(=O)(=O)c2ccc3ccccc3c2)c2ccccc2c1O` [Compound 34, 3-((1-Hydroxy-4-(naphthalene-2-sulfonamido)naphthalen-2-yl)thio)propanoic acid]: the IC50 in assay [1] (setting [5]) was 4.2 ± 1.25 µM. Also, the Ki in assay [1] (setting [6]) was 1.13 ± 0.34 µM.

In the case of `O=C(O)CCSc1cc(NS(=O)(=O)c2cccc3ccccc23)c2ccccc2c1O` [Compound 35], the 50% inhibitory concentration (IC50) in assay [1] (setting [5]) was above 50 µM. For the same compound, the Ki in assay [1] (setting [6]) is above 12.5 µM.

Take `COC(=O)CSc1cc(NS(=O)(=O)c2ccc(Br)cc2)c2ccccc2c1OC` [Compound 40d, Methyl 2-((4-(4-bromophenylsulfonamido)-1-methoxynaphthalen-2-yl)thio)acetate]: the concentration for half-maximal inhibition (IC50) in assay [1] (setting [5]) is above 800 µM. Further, the Ki in assay [1] (setting [6]) was above 200 µM.

For `CCCCSc1cc(NS(=O)(=O)c2ccc(Br)cc2)c2ccccc2c1OC` [Compound 40p, 4-Bromo-N-(3-(butylthio)-4-methoxynaphthalen-1-yl)benzenesulfonamide], in assay [1] (setting [5]), the half-maximal inhibitory concentration (IC50) was above 800 µM. For the same compound, the Ki in assay [1] (setting [6]) is above 200 µM.

Consider `CC[C@H](C)[C@H](NC(=O)[C@H](CC(N)=O)NC(=O)[C@H](CCCNC(=N)N)NC(=O)[C@@H](NC(=O)[C@@H](NC(=O)[C@H](CC(=O)O)NC(=O)[C@H](CCC(=O)O)NC(=O)c1ccc2c(c1)C(=O)OC21c2ccc(O)cc2Oc2cc(O)ccc21)[C@@H](C)CC)[C@@H](C)CC)C(=O)N[C@@H](C)C(=O)N[C@@H](CCCNC(=N)N)C(=O)N[C@@H](Cc1c[nH]cn1)C(=O)N[C@@H](CC(C)C)C(=O)N[C@@H](C)C(=O)N[C@@H](CCC(N)=O)C(=O)N[C@H](C(=O)NCC(=O)N[C@@H](CC(=O)O)C(=O)N[C@@H](CO)C(=O)N[C@@H](CCSC)C(=O)N[C@@H](CC(=O)O)C(=O)N[C@@H](CCCNC(=N)N)C(=O)O)C(C)C` [FAM-BID, reference compound], for which the Kd in assay [2] (saturation experiments, tracer 2 nM, read-out: Kd of fluorescent probe to A1/Bfl-1) is 0.00083 ± 6e-05 µM; in assay [3] (saturation experiments, tracer 2 nM, read-out: Kd of fluorescent probe to Bcl-w), 0.0055 ± 0.0016 µM.
